Results on 17 compounds are retold here after patent US10472341B2, “Bicyclic tetrahydrothiazepine derivatives useful for the treatment of neoplastic and/or infectious diseases” (APEIRON BIOLOGICS AG, priority 2015, dated 2019).

Assay [1] has as its system aCD3/aCD28-stimulated human PBMCs. The assay can be described thus: Cytokine production in aCD3/aCD28 stimulated human PBMCs. The conditions noted are these: PBMC, 18 h. Format: cell-based. The method in brief: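 Compound effects measured in buffy-coat PBMCs activated 18 h at 37° C by 1 μg/mL each of soluble anti-CD3 (OKT3) and anti-CD28 (28.2), 1e6 cells/mL. Cytokines in harvested supernatants read by MSD or HTRF.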

Assay [2] relates to aCD3/aCD28-stimulated human CD4+-T-cells. The assay can be described thus: IL-2 production and activation markers in aCD3/aCD28 stimulated isolated human CD4+-T-cells. Format: cell-based. Conditions: IL-2 production at 3 μM compound. An outline of the steps:
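CD4+ T cells isolated from buffy-coat PBMCs by microbeads were plated in Xvivo medium (1.5*10^5 cells/well) and stimulated with anti-CD3/28 mAbs plus compound. IL-2 measured by ELISA in supernatants at 24 h or 48 h; CD25 and proliferation by flow cytometry, CD69 at 24 h. Activity classes based on IL-2 at 3 μM compound.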

Where [3] appears, read: enhancement of IFN-γ production, read-out: Activity Class IFN-γ.
Where [4] appears, read: enhancement of IL-2 production, read-out: Activity Class IL-2.

Read-outs that look alike come from different tables or passages of the source.

Regarding `Cl.N[C@H]1CS(=O)(=O)c2cc(F)c(C(=O)NC3CC3)cc2N(Cc2ccc(Cl)cc2)C1=O` [Example 85, (3R)-3-amino-5-[(4-chlorophenyl)methyl]-N-cyclopropyl-8-fluoro-1,1,4-trioxo-2,3,4,5-tetrahydro-1λ^6,5-benzothiazepine-7-carboxamide hydrochloride], the EC50 in assay [1] (setting [3]) and in assay [1] (setting [4]) was 1.58 to 5.01 µM each time. In assay [2], the “Activity Class CD4+” value was “C (IL-2 production at 3 μM compound concentration between 2-fold increase as compared to mean IL-2 production of stimulated cells in the absence of compounds and <2 ng/mL)”.

As to `CCCCNC(=O)c1ccc2c(c1)N(Cc1ccc(Cl)cc1)C(=O)[C@@H](N)C[S+]2[O-].Cl` (stereo partly drawn) [Example 66, (3R)-3-amino-N-butyl-5-[(4-chlorophenyl)methyl]-1,4-dioxo-2,3,4,5-tetrahydro-1λ^4,5-benzothiazepine-7-carboxamide hydrochloride], the EC50 in assay [1] (setting [3]) is below 1.58 µM; in assay [1] (setting [4]), 1.58 to 5.01 µM. In assay [2], the “Activity Class CD4+” value was “C (IL-2 production at 3 μM compound concentration between 2-fold increase as compared to mean IL-2 production of stimulated cells in the absence of compounds and <2 ng/mL)”.

As to `C[C@@H]1[C@H](N)C(=O)N(Cc2ccc(Cl)cc2)c2cc(C(=O)NCCCC(F)(F)F)ccc2S1(=O)=O.Cl` [Example 111, (2R,3R)-3-amino-5-[(4-chlorophenyl)methyl]-2-methyl-1,1,4-trioxo-N-(4,4,4-trifluorobutyl)-2,3,4,5-tetrahydro-1λ^6,5-benzothiazepine-7-carboxamide hydrochloride], the EC50 in assay [1] (setting [3]) and in assay [1] (setting [4]) was 1.58 to 5.01 µM each time. Also, the “Activity Class CD4+” value in assay [2] was “B (IL-2 production at 3 μM compound concentration between 2-10 ng/mL)”.

With `Cl.N[C@H]1CS(=O)(=O)c2cc(F)c(C(=O)NC3CC(F)(F)C3)cc2N(Cc2ccc(Cl)cc2)C1=O` [Example 102, (3R)-3-amino-5-[(4-chlorophenyl)methyl]-N-(3,3-difluorocyclobutyl)-8-fluoro-1,1,4-trioxo-2,3,4,5-tetrahydro-1λ^6,5-benzothiazepine-7-carboxamide hydrochloride], the EC50 in assay [1] (setting [3]) and in assay [1] (setting [4]) was below 1.58 µM each time. For the same compound, in assay [2], the “Activity Class CD4+” value was “A (IL-2 production at 3 μM compound concentration >10 ng/mL)”.

`CC(C)NC(=O)c1ccc2c(c1)N(Cc1ccc(Cl)cc1)C(=O)[C@@H](N)CS2(=O)=O.Cl` [Example 79, (3R)-3-amino-5-[(4-chlorophenyl)methyl]-1,1,4-trioxo-N-(propan-2-yl)-2,3,4,5-tetrahydro-1λ^6,5-benzothiazepine-7-carboxamide hydrochloride]: the EC50 in assay [1] (setting [3]) was 1.58 to 5.01 µM; in assay [1] (setting [4]), above 5.01 µM. Further, the “Activity Class CD4+” value in assay [2] is “B (IL-2 production at 3 μM compound concentration between 2-10 ng/mL)”.

As for `Cl.N[C@H]1CS(=O)(=O)c2cc(F)c(C(=O)N[C@H]3C[C@@H]3c3ccccc3)cc2N(Cc2ccc(Cl)cc2)C1=O` [Example 98, (3R)-3-amino-5-[(4-chlorophenyl)methyl]-8-fluoro-1,1,4-trioxo-N-[(1S,2R)-2-phenylcyclopropyl]-2,3,4,5-tetrahydro-1λ^6,5-benzothiazepine-7-carboxamide hydrochloride], the EC50 in assay [1] (setting [3]) and in assay [1] (setting [4]) was below 1.58 µM each time. Also, the “Activity Class CD4+” value in assay [2] is on record as “A (IL-2 production at 3 μM compound concentration >10 ng/mL)”.

Turning to `Cl.N[C@H]1CSc2ccc(C(=O)NCc3ccc(F)cc3)cc2N(Cc2ccc(C(F)(F)F)nc2)C1=O` [Example 37, (3R)-3-amino-N-[(4-fluorophenyl)methyl]-4-oxo-5-{[6-(trifluoromethyl)pyridin-3-yl]methyl}-2,3,4,5-tetrahydro-1,5-benzothiazepine-7-carboxamide hydrochloride], the EC50 in assay [1] (setting [3]) was above 5.01 µM; in assay [1] (setting [4]), 1.58 to 5.01 µM. In addition, the “Activity Class CD4+” value in assay [2] is “C (IL-2 production at 3 μM compound concentration between 2-fold increase as compared to mean IL-2 production of stimulated cells in the absence of compounds and <2 ng/mL)”.

As for `Cl.N[C@H]1CS(=O)(=O)c2cc(F)c(C(=O)NOc3ccccc3)cc2N(Cc2ccc(OC(F)(F)F)cc2)C1=O` [Example 74, (3R)-3-amino-8-fluoro-1,1,4-trioxo-N-phenoxy-5-{[4-(trifluoromethoxy)phenyl]methyl}-2,3,4,5-tetrahydro-1λ^6,5-benzothiazepine-7-carboxamide hydrochloride], the EC50 in assay [1] (setting [3]) was 1.58 to 5.01 µM; in assay [1] (setting [4]) it was above 5.01 µM. Moreover, the “Activity Class CD4+” value in assay [2] is “C (IL-2 production at 3 μM compound concentration between 2-fold increase as compared to mean IL-2 production of stimulated cells in the absence of compounds and <2 ng/mL)”.

`Cl.N[C@H]1CSc2cc(F)c(C(=O)NCc3ccc(F)cc3)cc2N(Cc2nnc(C3CC3)s2)C1=O` [Example 113, (3R)-3-amino-5-[(5-cyclopropyl-1,3,4-thiadiazol-2-yl)methyl]-8-fluoro-N-[(4-fluorophenyl)methyl]-4-oxo-2,3,4,5-tetrahydro-1,5-benzothiazepine-7-carboxamide hydrochloride]: the EC50 is 1.58 to 5.01 µM in assay [1] (setting [3]) and above 5.01 µM in assay [1] (setting [4]). Further, the “Activity Class CD4+” value in assay [2] is “C (IL-2 production at 3 μM compound concentration between 2-fold increase as compared to mean IL-2 production of stimulated cells in the absence of compounds and <2 ng/mL)”.

Consider `Cl.N[C@H]1CSc2ccc(C(=O)NC3CCC(F)(F)CC3)cc2N(Cc2ccc(Cl)cc2)C1=O` [Example 33, (3R)-3-amino-5-[(4-chlorophenyl)methyl]-N-(4,4-difluorocyclohexyl)-4-oxo-2,3,4,5-tetrahydro-1,5-benzothiazepine-7-carboxamide hydrochloride], for which the EC50 is below 1.58 µM in assay [1] (setting [3]) and 1.58 to 5.01 µM in assay [1] (setting [4]). Also, in assay [2], the “Activity Class CD4+” value is listed as “B (IL-2 production at 3 μM compound concentration between 2-10 ng/mL)”.

Regarding `Cl.N[C@H]1CSc2ccc(C(=O)NCc3ccccc3)cc2N(Cc2ccc(OC(F)(F)F)cc2)C1=O` [Example 6, (3R)-3-amino-N-benzyl-4-oxo-5-{[4-(trifluoromethoxy)phenyl]methyl}-2,3,4,5-tetrahydro-1,5-benzothiazepine-7-carboxamide hydrochloride], the EC50 in assay [1] (setting [3]) was below 1.58 µM; in assay [1] (setting [4]), 1.58 to 5.01 µM. In addition, in assay [2], the “Activity Class CD4+” value is “B (IL-2 production at 3 μM compound concentration between 2-10 ng/mL)”.

On to `CCC(C)NC(=O)c1cc2c(cc1F)S(=O)(=O)C[C@H](N)C(=O)N2Cc1ccc(Cl)cc1.Cl` (stereo partly drawn) [Example 95, (3R)-3-amino-N-(butan-2-yl)-5-[(4-chlorophenyl)methyl]-8-fluoro-1,1,4-trioxo-2,3,4,5-tetrahydro-1λ^6,5-benzothiazepine-7-carboxamide hydrochloride], for which the EC50 in assay [1] (setting [3]) is below 1.58 µM; in assay [1] (setting [4]) it was 1.58 to 5.01 µM. Further, the “Activity Class CD4+” value in assay [2] was “B (IL-2 production at 3 μM compound concentration between 2-10 ng/mL)”.

On to `Cl.N[C@H]1CSc2cc(F)c(C(=O)NCC3CCOCC3)cc2N(Cc2ccc(Cl)c(F)c2)C1=O` [Example 56, (3R)-3-amino-5-[(4-chloro-3-fluorophenyl)methyl]-8-fluoro-N-(oxan-4-ylmethyl)-4-oxo-2,3,4,5-tetrahydro-1,5-benzothiazepine-7-carboxamide hydrochloride], for which the EC50 is below 1.58 µM in assay [1] (setting [3]) and 1.58 to 5.01 µM in assay [1] (setting [4]). In addition, the “Activity Class CD4+” value in assay [2] is “C (IL-2 production at 3 μM compound concentration between 2-fold increase as compared to mean IL-2 production of stimulated cells in the absence of compounds and <2 ng/mL)”.

As to `CC(C)C(C)NC(=O)c1ccc2c(c1)N(Cc1ccc(Cl)cc1)C(=O)[C@@H](N)CS2.Cl` (stereo partly drawn) [Example 63, (3R)-3-amino-5-[(4-chlorophenyl)methyl]-N-(3-methylbutan-2-yl)-4-oxo-2,3,4,5-tetrahydro-1,5-benzothiazepine-7-carboxamide hydrochloride], the EC50 in assay [1] (setting [3]) and in assay [1] (setting [4]) was 1.58 to 5.01 µM throughout. In assay [2], the “Activity Class CD4+” value is on record as “B (IL-2 production at 3 μM compound concentration between 2-10 ng/mL)”.

Regarding `Cc1nc(-c2ccc(CN3C(=O)[C@@H](N)CSc4ccc(C(=O)NCC5CCOCC5)cc43)cc2)no1.Cl` [Example 44, (3R)-3-amino-5-{[4-(5-methyl-1,2,4-oxadiazol-3-yl)phenyl]methyl}-N-(oxan-4-ylmethyl)-4-oxo-2,3,4,5-tetrahydro-1,5-benzothiazepine-7-carboxamide hydrochloride], the figures for the EC50 in assay [1] (setting [3]) and in assay [1] (setting [4]) were 1.58 to 5.01 µM and above 5.01 µM, respectively. Further, the “Activity Class CD4+” value in assay [2] is “C (IL-2 production at 3 μM compound concentration between 2-fold increase as compared to mean IL-2 production of stimulated cells in the absence of compounds and <2 ng/mL)”.

In the case of `Cl.N[C@H]1CSc2cc(F)c(C(=O)NCc3ccc(F)cc3)cc2N(Cc2ccc(Cl)cc2)C1=O` [Example 39, (3R)-3-amino-5-[(4-chlorophenyl)methyl]-8-fluoro-N-[(4-fluorophenyl)methyl]-4-oxo-2,3,4,5-tetrahydro-1,5-benzothiazepine-7-carboxamide hydrochloride], the EC50 in assay [1] (setting [3]) was below 1.58 µM; in assay [1] (setting [4]) it was 1.58 to 5.01 µM. Besides, the “Activity Class CD4+” value in assay [2] was “B (IL-2 production at 3 μM compound concentration between 2-10 ng/mL)”.

In the case of `COc1ccc(CNC(=O)c2cc3c(cc2F)SC[C@H](N)C(=O)N3Cc2ccc(Cl)cc2)cc1.Cl` [Example 43, (3R)-3-amino-5-[(4-chlorophenyl)methyl]-8-fluoro-N-[(4-methoxyphenyl)methyl]-4-oxo-2,3,4,5-tetrahydro-1,5-benzothiazepine-7-carboxamide hydrochloride], the EC50 in assay [1] (setting [3]) was below 1.58 µM; in assay [1] (setting [4]), 1.58 to 5.01 µM. For the same compound, the “Activity Class CD4+” value in assay [2] was “C (IL-2 production at 3 μM compound concentration between 2-fold increase as compared to mean IL-2 production of stimulated cells in the absence of compounds and <2 ng/mL)”.
